Results taken from ChEMBL document CHEMBL4402577, “Discovery and Optimization of a Compound Series Active against Trypanosoma cruzi, the Causative Agent of Chagas Disease” (J Med Chem, 2020).
≈ marks a conversion by molar mass, not a printed value. Calls of active or inactive are those of the source. No cut-off for these calls is given here.

What was measured:
[1] = Kinetic aqueous solubility of compound in DMSO by nephelometric analysis; assay type: physicochemical; settings: read-out: Kinetic_solubility
L6 = assay: Cytotoxicity against rat L6 cells incubated for 70 hrs by resazurin dye based assay; assay type: cell-based; settings: L6, 70 h
[2] = Intrinsic clearance in CD1 mouse liver microsomes at 0.5 uM measured up to 30 mins in presence of NADPH by UPLC-MSMS analysis; assay type: ADME, Microsome; settings: 0.5 h
[3] = Selectivity ratio, EC50 for cytotoxicity against rat L6 cells to EC50 for antitrypanosomal activity against Trypanosoma cruzi Tulahuen strain C2C4 trypomastigotes infected in rat L6 cells; assay type: toxicity, cell-based; settings: read-out: Ratio EC50
Trypanosoma cruzi [4] = assay: Antitrypanosomal activity against Trypanosoma cruzi Tulahuen strain C2C4 trypomastigotes infected in rat L6 cells incubated for 96 hrs by photometric method based assay; assay type: functional, organism-based; settings: Tulahuen strain C2C4, L6, 96 h
Trypanosoma cruzi [5] = assay: Antitrypanosomal activity against Trypanosoma cruzi Brazil strain trypomastigotes coexpressing luciferase infected in BALB/c mouse model of acute chagas disease assessed as reduction in parasite level at 30 mg/kg, ip treated 3 days post infection and measured on day 5 and 10; assay type: functional, organism-based
[6] = Toxicity in ip dosed BALB/c mouse model of acute chagas disease assessed as maximum tolerated dose; assay type: organism-based; settings: in vivo
[7] = Fraction unbound in NMRI mouse plasma at 30 mg/kg, iv by UPLC-MS/MS analysis; assay type: ADME, organism-based
Trypanosoma cruzi [8] = assay: Antitrypanosomal activity against Trypanosoma cruzi Brazil strain trypomastigotes coexpressing luciferase infected in BALB/c mouse model of acute chagas disease assessed as reduction in parasite level at 30 mg/kg, po treated 3 days post infection and measured on day 5 and 10; assay type: functional, organism-based

Row | Compound | solubility kinetic [1] | EC50 (L6) | intrinsic clearance [2] | selectivity ratio [3] | EC50 (Trypanosoma cruzi [4]) | Activity (Trypanosoma cruzi [5]) | MTD [6] | fraction unbound [7] | Activity (Trypanosoma cruzi [8]) | EC90 (Trypanosoma cruzi [4])
1 | CC(=O)Nc1cnc2[nH]c(=O)n([C@H]3CC[C@H](C(C)(C)C)CC3)c(=O)c2c1 | 310 µM (≈ 111 µg/mL) | 67000 nM | 1.4 mL/min/g | 80 | 840 nM |  |  |  |  | 
2 | CC(C)[C@H]1CC[C@H](n2c(=O)[nH]c3ncc(N)cc3c2=O)CC1 | 25 µM (≈ 7.56 µg/mL) | 46000 nM | 1.9 mL/min/g | 380 | 120 nM |  |  |  |  | 
3 | CC[C@H]1CC[C@@H](n2c(=O)[nH]c3ncc(NC(C)=O)cc3c2=O)CC1 | 48 µM (≈ 15.9 µg/mL) | 48000 nM | 2.7 mL/min/g | 150 | 330 nM |  |  |  |  | 
4 | CC(=O)Nc1cnc2[nH]c(=O)n([C@H]3CC[C@@H](C(C)(C)C)CC3)c(=O)c2c1 | < 28 µM | 15000 nM | 15 mL/min/g | 150 | 100 nM |  |  |  |  | 
5 | CC(C)[C@H]1CC[C@@H](n2c(=O)[nH]c3ncc(N)cc3c2=O)CC1 | 17 µM (≈ 5.14 µg/mL) | 46000 nM | 4.8 mL/min/g | 81 | 570 nM |  |  |  |  | 
6 | CC(=O)Nc1ccc2[nH]c(=O)n(C3CCC(C)(C)CC3)c(=O)c2c1 | 128 µM (≈ 42.2 µg/mL) | 12000 nM | 3.7 mL/min/g | 67 | 180 nM |  |  |  |  | 
7 | CC(C)(C)[C@H]1CC[C@H](n2c(=O)[nH]c3ccc(N)cc3c2=O)CC1 |  | 21000 nM | 2 mL/min/g | 330 | 63 nM | inactive | 30 mg/kg | 0.011 | inactive | 
8 | CC[C@H]1CC[C@@H](n2c(=O)[nH]c3ccc(NC(C)=O)cc3c2=O)CC1 | 73 µM (≈ 24 µg/mL) | 39000 nM | 12 mL/min/g | 460 | 85 nM |  |  |  |  | 
9 | CC(=O)Nc1ccc2[nH]c(=O)n([C@H]3CC[C@H](C(C)C)CC3)c(=O)c2c1 | 73 µM (≈ 25.1 µg/mL) | 3800 nM | 3.2 mL/min/g | 150 | 26 nM | Active |  | 0.028 | Active | 0.038 µg/mL (≈ 0.111 µM)
10 | CCC[C@H]1CC[C@@H](n2c(=O)[nH]c3ccc(NC(C)=O)cc3c2=O)CC1 | 102 µM (≈ 35 µg/mL) | 14000 nM | 19 mL/min/g | 700 | 20 nM |  |  |  |  | 
11 | CC[C@H]1CC[C@@H](n2c(=O)[nH]c3ncc(N)cc3c2=O)CC1 | < 17 µM | 250000 nM | 1.7 mL/min/g | 210 | 1200 nM |  |  |  |  | 
12 | CC[C@H]1CC[C@H](n2c(=O)[nH]c3ncc(N)cc3c2=O)CC1 | 55 µM (≈ 15.9 µg/mL) | 51000 nM | 0.9 mL/min/g | 150 | 340 nM |  |  |  |  | 
13 | CC[C@H]1CC[C@@H](n2c(=O)[nH]c3ccc(N)cc3c2=O)CC1 | > 350 µM | 52000 nM | 5.2 mL/min/g | 160 | 330 nM |  |  |  |  | 1.2 µg/mL (≈ 4.18 µM)
